Results taken from US9873704B2, “Heterocyclic compounds and their uses” (Amgen Inc., priority 2009, dated 2018).

biological target: T1, p110δ (Homo sapiens, UniProt O00329); assay: not given; details: cited from earlier work
T1 sequence (O00329 1-1044): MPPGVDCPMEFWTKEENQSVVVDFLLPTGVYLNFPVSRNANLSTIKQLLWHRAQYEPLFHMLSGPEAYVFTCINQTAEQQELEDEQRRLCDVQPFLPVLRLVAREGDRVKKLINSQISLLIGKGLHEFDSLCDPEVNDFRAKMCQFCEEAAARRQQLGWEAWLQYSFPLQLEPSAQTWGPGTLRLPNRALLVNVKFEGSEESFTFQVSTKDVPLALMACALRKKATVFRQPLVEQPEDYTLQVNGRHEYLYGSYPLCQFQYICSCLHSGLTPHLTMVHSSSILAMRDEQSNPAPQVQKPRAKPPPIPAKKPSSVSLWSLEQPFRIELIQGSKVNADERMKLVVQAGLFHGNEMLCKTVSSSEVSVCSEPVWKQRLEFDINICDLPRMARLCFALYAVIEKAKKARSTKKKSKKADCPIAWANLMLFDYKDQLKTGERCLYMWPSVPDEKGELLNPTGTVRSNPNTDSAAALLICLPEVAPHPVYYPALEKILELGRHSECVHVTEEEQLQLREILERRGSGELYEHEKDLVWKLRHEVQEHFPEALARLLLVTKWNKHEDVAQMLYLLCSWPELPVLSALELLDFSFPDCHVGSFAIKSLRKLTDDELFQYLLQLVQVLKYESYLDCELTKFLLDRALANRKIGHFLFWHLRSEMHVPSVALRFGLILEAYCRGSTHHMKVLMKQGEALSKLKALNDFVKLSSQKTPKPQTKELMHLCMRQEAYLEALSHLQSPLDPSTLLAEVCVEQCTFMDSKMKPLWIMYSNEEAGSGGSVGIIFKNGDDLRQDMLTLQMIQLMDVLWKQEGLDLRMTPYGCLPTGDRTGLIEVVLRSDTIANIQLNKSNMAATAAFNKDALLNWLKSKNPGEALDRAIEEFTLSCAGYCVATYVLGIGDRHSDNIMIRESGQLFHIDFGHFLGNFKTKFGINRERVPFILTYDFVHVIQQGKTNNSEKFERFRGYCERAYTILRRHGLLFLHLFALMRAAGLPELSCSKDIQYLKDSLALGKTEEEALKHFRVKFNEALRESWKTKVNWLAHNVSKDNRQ

SMILES	inhibits p110δ
Cc1ccccc1-n1c(Cn2cnc3c(N)ncnc32)nc2cccc(C)c2c1=O [IC87114]	high nanomolar range (triple digit)

system: mouse model of rheumatoid arthritis; assay: not given; details: in vivo; cited from earlier work

SMILES	efficacy in a mouse model of rheumatoid arthritis
O=C1NC(=O)/C(=C\c2ccc3nccnc3c2)S1 [AS 605240]	efficacious

biological target: T2, PI3Kδ (Homo sapiens, UniProt O00329); assay: PI3Kδ Alphascreen assay; assay type: biochemical; details: not given
T2 construct: Full length p110 subunits of PI3k α, β and δ, N-terminally labeled with polyHis tag; polyHis (N); made in house; host or cells: Sf9 insect cells (baculovirus)
T2 sequence (P27986 whole entry partner, one chain of several): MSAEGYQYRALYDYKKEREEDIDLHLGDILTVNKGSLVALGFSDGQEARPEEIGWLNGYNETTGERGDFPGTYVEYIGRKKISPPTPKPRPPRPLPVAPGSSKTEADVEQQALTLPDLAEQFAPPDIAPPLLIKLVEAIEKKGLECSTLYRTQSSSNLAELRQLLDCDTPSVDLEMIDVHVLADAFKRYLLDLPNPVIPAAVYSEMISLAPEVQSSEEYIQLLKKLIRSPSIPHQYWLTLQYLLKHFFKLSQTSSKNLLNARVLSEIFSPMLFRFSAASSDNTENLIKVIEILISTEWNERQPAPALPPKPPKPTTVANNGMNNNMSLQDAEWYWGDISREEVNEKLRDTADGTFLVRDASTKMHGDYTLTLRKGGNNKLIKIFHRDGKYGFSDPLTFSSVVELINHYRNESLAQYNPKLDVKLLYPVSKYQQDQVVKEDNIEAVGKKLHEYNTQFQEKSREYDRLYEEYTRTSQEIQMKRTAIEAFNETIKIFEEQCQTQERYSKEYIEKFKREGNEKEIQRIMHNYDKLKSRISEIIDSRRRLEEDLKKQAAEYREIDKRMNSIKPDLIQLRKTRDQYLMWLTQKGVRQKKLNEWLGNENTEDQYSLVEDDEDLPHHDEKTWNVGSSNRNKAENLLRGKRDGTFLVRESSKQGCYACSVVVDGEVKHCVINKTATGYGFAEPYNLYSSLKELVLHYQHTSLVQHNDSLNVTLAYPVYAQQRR
Method: Full length p110 subunits of PI3k α, β and δ, N-terminally labeled with polyHis tag, were coexpressed with p85 with Baculo virus expression vectors in sf9 insect cells. P110/p85 heterodimers were purified by sequential Ni-NTA, Q-HP, Superdex-100 chromatography. Purified α, β and δ isozymes were stored at −20° C. in 20 mM Tris, pH 8, 0.2M NaCl, 50% glycerol, 5 mM DTT, 2 mM Na cholate. […] The γ isozyme was purified by sequential Ni-NTA, Superdex-200, Q-HP chromatography. The γ isozyme was stored frozen at −80° C. in NaH2PO4, pH 8, 0.2M NaCl, 1% ethylene glycol, 2 mM β-mercaptoethanol.
A PI3K Alphascreen® assay (PerkinElmer, Waltham, Mass.) was used to measure the activity of a panel of four phosphoinositide 3-kinases: PI3Kα, PI3Kβ, PI3Kγ, and PI3Kδ. Enzyme reaction buffer was prepared using sterile water (Baxter, Deerfield, Ill.) and 50 mM Tris HCl pH 7, 14 mM MgCl2, 2 mM sodium cholate, and 100 mM NaCl. 2 mM DTT was added fresh the day of the experiment. The Alphascreen buffer was made using sterile water and 10 mM Tris HCl pH 7.5, 150 mM NaCl, 0.10% Tween 20, and 30 mM EDTA. 1 mM DTT was added fresh the day of the experiment. Compound source plates used for this assay were 384-well Greiner clear polypropylene plates containing test compounds at 5 mM and diluted 1:2 over 22 concentrations. Columns 23 and 24 contained only DMSO as these wells comprised the positive and negative controls, respectively. Source plates were replicated by transferring 0.5 uL per well into 384-well Optiplates (PerkinElmer, Waltham, Mass.).
Each PI3K isoform was diluted in enzyme reaction buffer to 2× working stocks. […] PI(4,5)P2 (Echelon Biosciences, Salt Lake City, Utah) was diluted to 10 μM and ATP was diluted to 20 μM. This 2× stock was used in the assays for PI3Kα and PI3Kβ. For assay of PI3Kγ and PI3Kδ, PI(4,5)P2 was diluted to 10 μM and ATP was diluted to 8 μM to prepare a similar 2× working stock. Alphascreen reaction solutions were made using beads from the anti-GST Alphascreen kit (PerkinElmer, Waltham, Mass.). Two 4× working stocks of the Alphascreen reagents were made in Alphascreen reaction buffer. In one stock, biotinylated-IP4 (Echelon Biosciences, Salt Lake City, Utah) was diluted to 40 nM and streptavidin-donor beads were diluted to 80 μg/mL. In the second stock, PIP3-binding protein (Echelon Biosciences, Salt Lake City, Utah) was diluted to 40 nM and anti-GST-acceptor beads were diluted to 80 μg/mL.
10 μL/well of the appropriate substrate 2× stock (containing 20 μM ATP for the PI3Kα and β assays and containing 8 μM ATP for the PI3Kγ and δ assays) was then added to Columns 1-24 of all plates. Plates were then incubated at room temperature for 20 minutes. In the dark, 10 μL/well of the donor bead solution was added to columns 1-24 of the plates to quench the enzyme reaction. The plates were incubated at room temperature for 30 minutes. Still in the dark, 10 μL/well of the acceptor bead solution was added to columns 1-24 of the plates. The plates were then incubated in the dark for 1.5 hours. The plates were read on an Envision multimode Plate Reader (PerkinElmer, Waltham, Mass.) using a 680 nm excitation filter and a 520-620 nm emission filter.

Ki	SMILES
262 nM	N#Cc1c(N)ncnc1NCc1nc2c(F)cccc2cc1-c1ccccn1 [4-Amino-6-((8-fluoro-3-(pyridin-2-yl)quinolin-2-yl)methyl-amino)pyrimidine-5-carbonitrile]
0.505 nM	C[C@H](Nc1ncnc(N)c1C#N)c1nc2ccc(F)cc2c(C(=O)N2CCOCC2)c1-c1ccccc1 [4-amino-6-(((1S)-1-(6-fluoro-4-(4-morpholinylcarbonyl)-3-phenyl-2-quinolinyl)ethyl)amino)-5-pyrimidinecarbonitrile]
246 nM	N#Cc1c(N)ncnc1NCc1nc2cccc(F)c2cc1-c1cc(F)cc(F)c1 [4-Amino-6-((3-(3,5-difluorophenyl)-5-fluoroquinolin-2-yl)methylamino)pyrimidine-5-carbonitrile]
5.15 nM	CC(Nc1ncnc(N)c1C#N)c1nc2ccc(F)cc2c(C(=O)NCC2CC2)c1-c1ccccc1 (stereo not drawn) [2-(1-(6-Amino-5-cyanopyrimidin-4-ylamino)ethyl)-N-(cyclopropylmethyl)-6-fluoro-3-phenylquinoline-4-carboxamide]
410 nM	C[C@@H](Nc1ncnc2[nH]cnc12)c1nc2ccc(F)cc2c(S(C)(=O)=O)c1-c1ccccc1 [(R)—N-(1-(6-fluoro-4-(methylsulfonyl)-3-phenylquinolin-2-yl)ethyl)-9H-purin-6-amine]
1.12 nM	C[C@H](Nc1ncnc2[nH]cnc12)c1nc2ccc(F)cc2c(S(C)(=O)=O)c1-c1ccccc1 [(S)—N-(1-(6-fluoro-4-(methylsulfonyl)-3-phenylquinolin-2-yl)ethyl)-9H-purin-6-amine]
2.34 nM	CC(Nc1ncnc2[nH]cnc12)c1nc2ccc(F)cc2c(S(C)(=O)=O)c1-c1ccccc1 (stereo not drawn) [N-(1-(6-Fluoro-4-(methylsulfonyl)-3-phenylquinolin-2-yl)ethyl)-9H-purin-6-amine]
217 nM	C[C@@H](Nc1ncnc2[nH]cnc12)c1nc2ccc(F)cc2cc1-c1ccccn1 [(R)—N-(1-(6-fluoro-3-(pyridin-2-yl)quinolin-2-yl)ethyl)-9H-purin-6-amine]
68.4 nM	COc1c(-c2cc(F)cc(F)c2)c([C@H](C)Nc2ncnc(N)c2C#N)nc2ccc(F)cc12 [(S)-4-Amino-6-(1-(3-(3,5-difluorophenyl)-6-fluoro-4-methoxyquinolin-2-yl)-ethylamino)pyrimidine-5-carbonitrile]
62.2 nM	COCCNc1c(-c2ccccc2)c([C@@H](C)Nc2ncnc(N)c2C#N)nc2ccc(F)cc12 [4-Amino-6-(((1R)-1-(6-fluoro-4-((2-methoxyethyl)amino)-3-phenyl-2-quinolinyl)ethyl)amino)-5-pyrimidinecarbonitrile]
2.24 nM	CC(Nc1ncnc2[nH]cnc12)c1nc2cccc(F)c2c(S(C)(=O)=O)c1-c1ccccc1 (stereo not drawn) [N-(1-(5-Fluoro-4-(methylsulfonyl)-3-phenylquinolin-2-yl)ethyl)-9H-purin-6-amine]
1.31 nM	CC(Nc1ncnc(N)c1C#N)c1nc2ccc(F)cc2c(CN2CCOCC2)c1-c1ccccc1 (stereo not drawn) [4-amino-6-((-1-(6-fluoro-4-(4-morpholinylmethyl)-3-phenyl-2-quinolinyl)ethyl)amino)-5-pyrimidinecarbonitrile]
25 nM	C[C@@H](c1nc2ccc(F)cc2cc1-c1cncc(F)c1)n1nc(C#N)c2c(N)ncnc21 [4-Amino-1-((S)-1-(6-fluoro-3-(5-fluoropyridin-3-yl)quinolin-2-yl)ethyl)-1H-pyrazolo[3,4-d]pyrimidine-3-carbonitrile]

system: murine model of asthma; assay: not given; details: ovalbumin-induced airway inflammation; cited from earlier work

SMILES	inflammation and disease in a murine model of asthma
Cc1ccccc1-n1c(Cn2cnc3c(N)ncnc32)nc2cccc(C)c2c1=O [IC87114]	significantly ameliorate inflammation and disease

system: model of systemic lupus erythematosis; assay: not given; details: in vivo; cited from earlier work

SMILES	onset of disease in a model of systemic lupus erythematosis
O=C1NC(=O)/C(=C\c2ccc3nccnc3c2)S1 [AS 605240]	delay onset of disease

system: protein kinases; assay: not given; details: cited from earlier work

SMILES	activity against any protein kinases tested
Cc1ccccc1-n1c(Cn2cnc3c(N)ncnc32)nc2cccc(C)c2c1=O [IC87114]	no activity
